ChEMBL document CHEMBL3727366, “Heterocyclic compounds for the treatment of stress-related conditions” (2013)
The source made the active and inactive calls. No rule for the calls is given here.

test system: Rattus norvegicus; test: Inhibition of restraint stress-induced defecation in Wistar rat at 5 mL/kg, po dosed 1 or 2 hrs before restraint stress; type: functional, organism-based

| SMILES | inhibition |
| --- | --- |
| COn1c(NC(CCC(F)(F)F)c2ccc(Cl)cc2)nc2c(c1=O)CN(C(=O)c1ccc(Cl)cc1)CC2 (stereo unspecified) | Active |
| C#CCn1c(N[C@@H](C)c2ccc(C(F)(F)F)cc2)nc2c(c1=O)CN(C(=O)c1ccc(Cl)cc1)CC2 | Active |
| COn1c(N[C@@H](C)c2ccc(C(F)(F)F)cc2)nc2c(c1=O)CN(C(=O)c1cc3cc(Cl)ccc3o1)CC2 | Active |
| C[C@H](Nc1nc2c(c(=O)n1N(C)C)CN(C(=O)c1ccc(C#N)cc1F)CC2)c1ccc(C(F)(F)F)cc1 | Active |
| CC#CCn1c(N[C@@H](C)c2ccc(C(F)(F)F)cc2)nc2c(c1=O)CN(C(=O)c1ccc(Cl)cc1)CC2 | Active |
| CCOc1ccc(CNc2nc3c(c(=O)n2OC)CN(C(=O)c2ccc(C#N)cc2F)CC3)cc1 | Active |
| COc1cc(Cl)ccc1C(=O)N1CCc2nc(N[C@@H](C)c3ccc(C(F)(F)F)cc3)n(OC)c(=O)c2C1 | Active |
| COn1c(N2CCCC2c2ccc(C(F)(F)F)cc2)nc2c(c1=O)CN(C(=O)c1ccc(Cl)cc1)CC2 (stereo unspecified) | Active |
| COn1c(N[C@@H](C)c2ccc(C(F)(F)F)cc2)nc2c(c1=O)CN(C(=O)c1ccc3c(c1)CCC(=O)N3C)CC2 | Active |
| COn1c(N[C@@H](C)c2ccc(Cl)cc2)nc2c(c1=O)CN(C(=O)c1cc3cccnc3s1)CC2 | Active |
| CC#CCn1c(N[C@@H](C)c2ccc(C(F)(F)F)cc2)nc2c(c1=O)CN(C(=O)c1ccc(C#N)cc1F)CC2 | Active |
| C#CCCn1c(N[C@@H](C)c2ccc(C(F)(F)F)cc2)nc2c(c1=O)CN(C(=O)c1ccc(-n3ccnc3)cc1)CC2 | Active |
| COn1c(N[C@@H](C)c2ccc(C(F)(F)F)cc2)nc2c(c1=O)CN(C(=O)c1ccc(Cl)cc1)CC2 | Active |
| CC#CCn1c(N[C@@H](C)c2ccc(C(F)(F)F)cc2)nc2c(c1=O)CN(C(=O)c1ccc(-n3ccnc3)cc1)CC2 | Active |
| CC#CCn1c(N[C@@H](C)c2ccc(C(F)(F)F)cc2)nc2c(c1=O)CN(C(=O)c1ccc(OC)cc1)CC2 | Active |
| CC#CCn1c(N[C@@H](C)c2ccc(C(F)(F)F)cc2)nc2c(c1=O)CN(C(=O)c1cnc3ccccc3c1)CC2 | Active |
| CC#CCn1c(N[C@@H](C)c2ccc(C(F)(F)F)cc2)nc2c(c1=O)CN(C(=O)c1ccc3cccnc3c1)CC2 | Active |
| COn1c(N[C@@H](C)c2ccc(C(F)(F)F)cc2)nc2c(c1=O)CN(C(=O)c1ccc(Cl)c(C)c1)CC2 | Active |
| C#CCCn1c(N[C@@H](C)c2ccc(C(F)(F)F)cc2)nc2c(c1=O)CN(C(=O)c1ccc(C#N)cc1F)CC2 | Active |
| COn1c(N[C@@H](C)c2ccc(C(F)(F)F)cc2)nc2c(c1=O)CN(C(=O)c1ccc(OC(F)(F)F)cc1)CC2 | Active |
| C#CCn1c(N[C@@H](C)c2ccc(Cl)cc2)nc2c(c1=O)CN(C(=O)c1ccc(Cl)cc1)CC2 | Active |
| CC#CCn1c(N[C@@H](C)c2ccc(C(F)(F)F)cc2)nc2c(c1=O)CN(C(=O)c1ccc3c(c1)CCC(=O)N3)CC2 | Active |

| SMILES | inhibition |
| --- | --- |
| C#CCCn1c(N[C@@H](C)c2ccc(C(F)(F)F)cc2)nc2c(c1=O)CN(C(=O)c1ccc(C)cc1)CC2 | Active |
| CC#CCn1c(N[C@@H](C)c2ccc(C(F)(F)F)cc2)nc2c(c1=O)CN(C(=O)c1ccc3ccccc3n1)CC2 | Active |
| C#CCn1c(N[C@@H](C)c2ccc(C(F)(F)F)cc2)nc2c(c1=O)CN(C(=O)c1cccc(C#N)c1)CC2 | Active |
| C#CCCn1c(N[C@@H](C)c2ccc(C(F)(F)F)cc2)nc2c(c1=O)CN(C(=O)c1nc3ccccc3[nH]1)CC2 | Active |
| CC#CCn1c(N[C@@H](C)c2ccc(C(F)(F)F)cc2)nc2c(c1=O)CN(C(=O)c1ccc(C)c(C)c1)CC2 | Active |
| C[C@H](Nc1nc2c(c(=O)n1N(C)C)CN(C(=O)c1ccc(Cl)cc1)CC2)c1ccc(C(F)(F)F)cc1 | Active |
| C[C@H](Nc1nc2c(c(=O)n1N1CCOCC1)CN(C(=O)c1ccc(C#N)cc1)CC2)c1ccc(C(F)(F)F)cc1 | Active |
| COn1c(NCc2ccc(C(F)(F)F)cc2)nc2c(c1=O)CN(C(=O)c1ccc(Cl)cc1)CC2 | Active |
| CCC(Nc1nc2c(c(=O)n1OC)CN(C(=O)c1ccc(Cl)cc1)CC2)c1ccc(Cl)cc1 (stereo unspecified) | Active |
| CCOc1ccc(C(=O)N2CCc3nc(N[C@@H](C)c4ccc(C(F)(F)F)cc4)n(OC)c(=O)c3C2)cc1 | Active |
| C[C@H](Nc1nc2c(c(=O)n1N(C)C)CN(C(=O)c1ccc(Cl)cc1)CC2)c1ccc(Cl)cc1 | Active |
| COn1c(N[C@@H](C)c2ccc(C(F)(F)F)cc2)nc2c(c1=O)CN(C(=O)c1cnc3ccccc3c1)CC2 | Active |
| COn1c(NC(c2ccc(Cl)cc2)C(C)C)nc2c(c1=O)CN(C(=O)c1ccc(Cl)cc1)CC2 (stereo unspecified) | Active |
| C#CCn1c(N[C@@H](C)c2ccc(C(F)(F)F)cc2)nc2c(c1=O)CN(C(=O)c1ccc(C#N)cc1F)CC2 | Active |
| C#CCCn1c(N[C@@H](C)c2ccc(C(F)(F)F)cc2)nc2c(c1=O)CN(C(=O)c1ccc(-c3cnco3)cc1)CC2 | Active |
| C#CCCn1c(N[C@@H](C)c2ccc(C(F)(F)F)cc2)nc2c(c1=O)CN(C(=O)c1ccc(C#N)cc1)CC2 | Active |
| CC#CCn1c(N[C@@H](C)c2ccc(C(F)(F)F)cc2)nc2c(c1=O)CN(C(=O)c1cc3ccccn3n1)CC2 | Active |
| C[C@H](Nc1nc2c(c(=O)n1N(C)C)CN(C(=O)COc1ccc(Cl)cc1)CC2)c1ccc(C(F)(F)F)cc1 | Active |
| COn1c(N[C@@H](C)c2ccc(Cl)cc2)nc2c(c1=O)CN(C(=O)c1ccc(Cl)cc1)CC2 | Active |
| COn1c(NCc2ccc(Cl)cc2)nc2c(c1=O)CN(C(=O)c1ccc(Cl)cc1)CC2 | Active |
| CC#CCn1c(N[C@@H](C)c2ccc(C(F)(F)F)cc2)nc2c(c1=O)CN(C(=O)c1ccc3c(c1)OCO3)CC2 | Active |

test system: Rattus norvegicus; test: Inhibition of tail-pinch stress-induced feeding behavior in Wistar rat at 5 mL/kg, po dosed 1 or 2 hrs before tail-pinch stimulus; type: functional, organism-based

| SMILES | inhibition |
| --- | --- |
| COn1c(NC(CCC(F)(F)F)c2ccc(Cl)cc2)nc2c(c1=O)CN(C(=O)c1ccc(Cl)cc1)CC2 (stereo unspecified) | Active |
| C#CCn1c(N[C@@H](C)c2ccc(C(F)(F)F)cc2)nc2c(c1=O)CN(C(=O)c1ccc(Cl)cc1)CC2 | Active |
| COn1c(N[C@@H](C)c2ccc(C(F)(F)F)cc2)nc2c(c1=O)CN(C(=O)c1cc3cc(Cl)ccc3o1)CC2 | Active |
| C[C@H](Nc1nc2c(c(=O)n1N(C)C)CN(C(=O)c1ccc(C#N)cc1F)CC2)c1ccc(C(F)(F)F)cc1 | Active |
| CC#CCn1c(N[C@@H](C)c2ccc(C(F)(F)F)cc2)nc2c(c1=O)CN(C(=O)c1ccc(Cl)cc1)CC2 | Active |
| CCOc1ccc(CNc2nc3c(c(=O)n2OC)CN(C(=O)c2ccc(C#N)cc2F)CC3)cc1 | Active |
| COc1cc(Cl)ccc1C(=O)N1CCc2nc(N[C@@H](C)c3ccc(C(F)(F)F)cc3)n(OC)c(=O)c2C1 | Active |
| COn1c(N2CCCC2c2ccc(C(F)(F)F)cc2)nc2c(c1=O)CN(C(=O)c1ccc(Cl)cc1)CC2 (stereo unspecified) | Active |
| COn1c(N[C@@H](C)c2ccc(C(F)(F)F)cc2)nc2c(c1=O)CN(C(=O)c1ccc3c(c1)CCC(=O)N3C)CC2 | Active |
| COn1c(N[C@@H](C)c2ccc(Cl)cc2)nc2c(c1=O)CN(C(=O)c1cc3cccnc3s1)CC2 | Active |
| CC#CCn1c(N[C@@H](C)c2ccc(C(F)(F)F)cc2)nc2c(c1=O)CN(C(=O)c1ccc(C#N)cc1F)CC2 | Active |
| C#CCCn1c(N[C@@H](C)c2ccc(C(F)(F)F)cc2)nc2c(c1=O)CN(C(=O)c1ccc(-n3ccnc3)cc1)CC2 | Active |
| COn1c(N[C@@H](C)c2ccc(C(F)(F)F)cc2)nc2c(c1=O)CN(C(=O)c1ccc(Cl)cc1)CC2 | Active |
| CC#CCn1c(N[C@@H](C)c2ccc(C(F)(F)F)cc2)nc2c(c1=O)CN(C(=O)c1ccc(-n3ccnc3)cc1)CC2 | Active |
| CC#CCn1c(N[C@@H](C)c2ccc(C(F)(F)F)cc2)nc2c(c1=O)CN(C(=O)c1ccc(OC)cc1)CC2 | Active |
| CC#CCn1c(N[C@@H](C)c2ccc(C(F)(F)F)cc2)nc2c(c1=O)CN(C(=O)c1cnc3ccccc3c1)CC2 | Active |
| CC#CCn1c(N[C@@H](C)c2ccc(C(F)(F)F)cc2)nc2c(c1=O)CN(C(=O)c1ccc3cccnc3c1)CC2 | Active |
| COn1c(N[C@@H](C)c2ccc(C(F)(F)F)cc2)nc2c(c1=O)CN(C(=O)c1ccc(Cl)c(C)c1)CC2 | Active |
| C#CCCn1c(N[C@@H](C)c2ccc(C(F)(F)F)cc2)nc2c(c1=O)CN(C(=O)c1ccc(C#N)cc1F)CC2 | Active |
| COn1c(N[C@@H](C)c2ccc(C(F)(F)F)cc2)nc2c(c1=O)CN(C(=O)c1ccc(OC(F)(F)F)cc1)CC2 | Active |
| C#CCn1c(N[C@@H](C)c2ccc(Cl)cc2)nc2c(c1=O)CN(C(=O)c1ccc(Cl)cc1)CC2 | Active |
| CC#CCn1c(N[C@@H](C)c2ccc(C(F)(F)F)cc2)nc2c(c1=O)CN(C(=O)c1ccc3c(c1)CCC(=O)N3)CC2 | Active |

| SMILES | inhibition |
| --- | --- |
| C#CCCn1c(N[C@@H](C)c2ccc(C(F)(F)F)cc2)nc2c(c1=O)CN(C(=O)c1ccc(C)cc1)CC2 | Active |
| CC#CCn1c(N[C@@H](C)c2ccc(C(F)(F)F)cc2)nc2c(c1=O)CN(C(=O)c1ccc3ccccc3n1)CC2 | Active |
| C#CCn1c(N[C@@H](C)c2ccc(C(F)(F)F)cc2)nc2c(c1=O)CN(C(=O)c1cccc(C#N)c1)CC2 | Active |
| C#CCCn1c(N[C@@H](C)c2ccc(C(F)(F)F)cc2)nc2c(c1=O)CN(C(=O)c1nc3ccccc3[nH]1)CC2 | Active |
| CC#CCn1c(N[C@@H](C)c2ccc(C(F)(F)F)cc2)nc2c(c1=O)CN(C(=O)c1ccc(C)c(C)c1)CC2 | Active |
| C[C@H](Nc1nc2c(c(=O)n1N(C)C)CN(C(=O)c1ccc(Cl)cc1)CC2)c1ccc(C(F)(F)F)cc1 | Active |
| C[C@H](Nc1nc2c(c(=O)n1N1CCOCC1)CN(C(=O)c1ccc(C#N)cc1)CC2)c1ccc(C(F)(F)F)cc1 | Active |
| COn1c(NCc2ccc(C(F)(F)F)cc2)nc2c(c1=O)CN(C(=O)c1ccc(Cl)cc1)CC2 | Active |
| CCC(Nc1nc2c(c(=O)n1OC)CN(C(=O)c1ccc(Cl)cc1)CC2)c1ccc(Cl)cc1 (stereo unspecified) | Active |
| CCOc1ccc(C(=O)N2CCc3nc(N[C@@H](C)c4ccc(C(F)(F)F)cc4)n(OC)c(=O)c3C2)cc1 | Active |
| C[C@H](Nc1nc2c(c(=O)n1N(C)C)CN(C(=O)c1ccc(Cl)cc1)CC2)c1ccc(Cl)cc1 | Active |
| COn1c(N[C@@H](C)c2ccc(C(F)(F)F)cc2)nc2c(c1=O)CN(C(=O)c1cnc3ccccc3c1)CC2 | Active |
| COn1c(NC(c2ccc(Cl)cc2)C(C)C)nc2c(c1=O)CN(C(=O)c1ccc(Cl)cc1)CC2 (stereo unspecified) | Active |
| C#CCn1c(N[C@@H](C)c2ccc(C(F)(F)F)cc2)nc2c(c1=O)CN(C(=O)c1ccc(C#N)cc1F)CC2 | Active |
| C#CCCn1c(N[C@@H](C)c2ccc(C(F)(F)F)cc2)nc2c(c1=O)CN(C(=O)c1ccc(-c3cnco3)cc1)CC2 | Active |
| C#CCCn1c(N[C@@H](C)c2ccc(C(F)(F)F)cc2)nc2c(c1=O)CN(C(=O)c1ccc(C#N)cc1)CC2 | Active |
| CC#CCn1c(N[C@@H](C)c2ccc(C(F)(F)F)cc2)nc2c(c1=O)CN(C(=O)c1cc3ccccn3n1)CC2 | Active |
| C[C@H](Nc1nc2c(c(=O)n1N(C)C)CN(C(=O)COc1ccc(Cl)cc1)CC2)c1ccc(C(F)(F)F)cc1 | Active |
| COn1c(N[C@@H](C)c2ccc(Cl)cc2)nc2c(c1=O)CN(C(=O)c1ccc(Cl)cc1)CC2 | Active |
| COn1c(NCc2ccc(Cl)cc2)nc2c(c1=O)CN(C(=O)c1ccc(Cl)cc1)CC2 | Active |
| CC#CCn1c(N[C@@H](C)c2ccc(C(F)(F)F)cc2)nc2c(c1=O)CN(C(=O)c1ccc3c(c1)OCO3)CC2 | Active |
